Laboratory results: patent US10596172B2 (Celgene CAR LLC, priority 2008, dated 2020)

How the values were obtained:
BTK [1] = target: T1, BTK (Homo sapiens (Human), UniProt Q06187); assay: Washout experiment with Ramos cells; assay type: cell-based; settings: 100 nM compound 1 hour, then washout
Experimental: Ramos cells were serum starved for one hour in RPMI media +1% glutamine at 37° C. After starvation, Ramos cells were treated with 100 nM compound diluted in serum free RPMI media for 1 hour. After compound treatment, the media was removed and cells were washed with compound-free media. Subsequently, Ramos cells were washed every 2 hours and resuspended in fresh compound-free media. Cells were collected at specified timepoints, treated with 1 ug anti-human IgM (Southern Biotech cat #2022-01) for 10 minutes on ice to induce BCR signaling and then washed in PBS. Ramos cells were then lysed in Cell Extraction Buffer (Invitrogen FNN0011) supplemented with Roche complete protease inhibitor tablets (Roche 11697498001) and phosphatase inhibitors (Roche 04 906 837 001) and 18 ug total protein lysate was loaded in each lane. Inhibition of BTK kinase activity was assayed by measuring its substrate (PLCγ2) phosphorylation by western blot with phospho-specific antibodies from Cell Signaling Technologies cat #3871. The results of this experiment with compounds I-2, I-4 and I-7 are depicted in FIGS. 1, 2 and 3.

Erbb4 kinase domain = Erbb4 kinase domain (Homo sapiens (Human), UniProt Q15303); assay: Mass spectrometry for ERBB4; assay type: binding; settings: 60 minutes at 10-fold excess of compound
Experimental: Erbb4 kinase domain (Upstate) was incubated with compound for 60 minutes at 10-fold excess of compound I-4 and I-11 to protein. 1 μl aliquots of the samples (total volume of 4.24 ul) were diluted with 10 μl of 0.1% TFA prior to micro C4 ZipTipping directly onto the MALDI target using Sinapinic acid as the desorption matrix (10 mg/ml in 0.1% TFA:Acetonitrile 50:50). For intact protein mass measurement the instrument was set in Linear mode using a pulsed extraction setting of 16,952 for the myoglobin standard used to calibrate the instrument (Shimadzu Axima TOF^2).
Intact ErbB4 protein occurs at MH+ of 35850 with corresponding sinapinic (matrix) adducts occurring about 200 Da higher. A stoichiometric incorporation of the test compound (I-4 and I-11) (Mw of 410 Da) produced a new mass peak which is approximately 410 Da higher (MH+ of 36260).

BTK [2] = target: T1, BTK; assay: Mass spectrometry for BTK (covalent modification of intact protein); assay type: binding; settings: 1 hr, 10x fold excess of compound
Experimental: Intact BTK was incubated for 1 hr at a 10× fold excess of I-7 to protein. Aliquots (2 μl) of the samples were diluted with 10 μl of 0.1% TFA prior to micro C4 ZipTipping directly onto the MALDI target using Sinapinic acid as the desorption matrix (10 mg/ml in 0.1% TFA:Acetonitrile 20:80).

JAK3 = JAK3 (Homo sapiens (Human), UniProt P52333); assay: Mass spectrometry for Janus-3 kinase (JAK3); assay type: binding; settings: 3 hrs at 10x excess, tryptic digest
Experimental: JAK3 kinase (33 pmols; Invitrogen) was incubated with (I-7) (327 pmols) for 3 hrs at 10× excess prior to tryptic digestion. Iodoacetamide was used as the alkylating agent after compound incubation. For tryptic digests a 5 ul aliquot (5.5 pmols) was diluted with 15 ul of 0.1% TFA prior to micro C18 Zip Tipping directly onto the MALDI target using alpha cyano-4-hydroxy cinnamic acid as the matrix (5 mg/ml in 0.1% TFA:Acetonitrile 50:50).
As depicted in FIG. 11, the expected peptide ([…]) to be modified was immediately evident as the largest peak at MH+ of 1725.88. This is the mass to be expected when compound I-7, with an adduct mass of 345.16, is added to the peptide mass of 1380.70. […] There was also evidence for a number of other modified peptides, however, their signals were low.
To further verify the presence of the modified peptides with compound I-7, the peptides at MH+ of 1725.88 and 1118.55 were subjected to PSD (MS/MS) analysis. A correlational analysis with the homo sapien database identified the correct peptides as being modified by I-7.
For tryptic digests the instrument was set in Reflectron mode with a pulsed extraction setting of 2200. Calibration was done using the Laser Biolabs Pep Mix standard ([…], 1296.69, 1672.92, 2093.09, 2465.20). […]

BTK [3] = target: T1, BTK; assay: BTK occupancy in Ramos cells with I-7 and probe I-215 using streptavidin beads; assay type: cell-based; settings: 1 hour, higher concentrations of I-7 (above 10 nM)
Experimental: Ramos cells were incubated with 0.1, 0.05, 0.01, or 0.001 μM I-7 in serum free media for 1 hour at 37° C. The cells were pelleted by centrifugation and lysed in Cell Extraction buffer (Invitrogen) for 10 minutes on ice, centrifuged (10 minutes at 14,000 rpm) and the supernatant was collected. Cell lysates were incubated with 1 μM I-215 for 1 hour at room temperature, then incubated with streptavidin-coupled agarose beads (ThermoFisher) overnight at 4° C. The beads were washed three times with lysis buffer and the bound proteins were boiled off the beads at 95° C. for 5 minutes in 4×LDS Sample Buffer. The amount of BTK associated with the probe I-215 was assessed by BTK western blot. All values were normalized to the DMSO-treated sample which is set to 100%.

T1 sequence (Q06187 whole entry): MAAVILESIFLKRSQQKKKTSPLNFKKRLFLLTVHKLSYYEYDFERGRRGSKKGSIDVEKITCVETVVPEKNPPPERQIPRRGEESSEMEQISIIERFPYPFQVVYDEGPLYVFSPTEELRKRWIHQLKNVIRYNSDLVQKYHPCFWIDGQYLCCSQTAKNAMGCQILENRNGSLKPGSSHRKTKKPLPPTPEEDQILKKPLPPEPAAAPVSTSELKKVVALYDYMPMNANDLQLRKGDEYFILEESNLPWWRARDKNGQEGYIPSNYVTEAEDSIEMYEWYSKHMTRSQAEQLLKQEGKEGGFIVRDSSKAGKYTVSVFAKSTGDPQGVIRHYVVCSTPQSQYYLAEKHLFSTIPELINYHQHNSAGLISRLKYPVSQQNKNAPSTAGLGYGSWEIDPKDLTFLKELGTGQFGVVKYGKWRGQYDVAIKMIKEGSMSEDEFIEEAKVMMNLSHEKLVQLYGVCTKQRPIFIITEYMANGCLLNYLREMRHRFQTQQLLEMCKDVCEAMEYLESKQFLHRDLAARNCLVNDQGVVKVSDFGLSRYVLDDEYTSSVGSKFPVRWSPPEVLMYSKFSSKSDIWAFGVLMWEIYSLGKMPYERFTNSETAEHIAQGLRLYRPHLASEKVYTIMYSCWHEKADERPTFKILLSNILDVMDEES
Erbb4 kinase domain, sequence (Q15303 718-985): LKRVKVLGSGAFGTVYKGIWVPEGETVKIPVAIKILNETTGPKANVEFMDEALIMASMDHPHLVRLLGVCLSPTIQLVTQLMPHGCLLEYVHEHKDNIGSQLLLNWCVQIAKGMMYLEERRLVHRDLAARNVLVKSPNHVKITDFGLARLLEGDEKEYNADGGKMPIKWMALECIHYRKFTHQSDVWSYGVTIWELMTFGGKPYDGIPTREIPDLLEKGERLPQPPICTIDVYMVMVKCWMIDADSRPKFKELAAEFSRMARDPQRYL
JAK3, sequence (P52333 whole entry): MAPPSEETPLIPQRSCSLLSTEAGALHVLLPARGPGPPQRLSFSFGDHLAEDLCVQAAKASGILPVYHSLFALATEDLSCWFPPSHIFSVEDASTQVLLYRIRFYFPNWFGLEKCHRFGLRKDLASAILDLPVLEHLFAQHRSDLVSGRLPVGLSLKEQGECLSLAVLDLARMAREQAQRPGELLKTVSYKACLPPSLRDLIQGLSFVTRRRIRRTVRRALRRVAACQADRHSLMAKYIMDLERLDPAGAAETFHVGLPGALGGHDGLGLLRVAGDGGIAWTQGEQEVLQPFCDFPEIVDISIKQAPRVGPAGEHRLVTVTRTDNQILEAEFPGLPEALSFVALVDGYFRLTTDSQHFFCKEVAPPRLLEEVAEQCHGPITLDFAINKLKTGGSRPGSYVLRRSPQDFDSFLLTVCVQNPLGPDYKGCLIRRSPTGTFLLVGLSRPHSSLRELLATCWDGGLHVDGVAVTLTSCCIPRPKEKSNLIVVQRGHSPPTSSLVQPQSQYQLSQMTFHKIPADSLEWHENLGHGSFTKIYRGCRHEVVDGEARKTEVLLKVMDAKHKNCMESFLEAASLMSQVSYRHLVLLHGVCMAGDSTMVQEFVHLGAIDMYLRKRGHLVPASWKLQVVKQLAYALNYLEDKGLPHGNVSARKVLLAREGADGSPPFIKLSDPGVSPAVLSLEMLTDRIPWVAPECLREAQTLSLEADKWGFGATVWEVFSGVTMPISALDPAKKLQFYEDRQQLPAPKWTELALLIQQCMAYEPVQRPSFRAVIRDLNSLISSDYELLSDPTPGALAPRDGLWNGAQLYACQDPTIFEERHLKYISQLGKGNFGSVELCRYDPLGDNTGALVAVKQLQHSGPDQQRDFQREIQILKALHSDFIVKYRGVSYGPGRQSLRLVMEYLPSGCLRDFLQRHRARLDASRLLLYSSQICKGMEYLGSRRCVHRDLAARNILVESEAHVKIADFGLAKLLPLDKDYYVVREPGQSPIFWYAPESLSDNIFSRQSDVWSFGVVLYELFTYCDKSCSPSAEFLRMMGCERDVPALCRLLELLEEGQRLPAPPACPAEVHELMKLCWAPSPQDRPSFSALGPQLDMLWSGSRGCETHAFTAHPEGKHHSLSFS

Row | SMILES | BTK Inhibition Type (BTK [1]) | covalent modification of ErbB4 by mass spectrometry (Erbb4 kinase domain) | covalent modification of BTK by mass spectrometry (BTK [2]) | covalent modification of JAK3 peptide LVMEYLPSGCLR (Cys909) by mass spectrometry (JAK3) | BTK occupancy (BTK available to probe I-215) (BTK [3])
1 | Cc1cccc(Nc2nc(Nc3cccc(NC(=O)/C=C/CN(C)C)c3)ncc2F)c1 [Compound I-4, (E)-4-(dimethylamino)-N-(3-(5-fluoro-4-(m-tolylamino)pyrimidin-2-ylamino)phenyl)but-2-enamide] | irreversible | covalent modification |  |  | 
2 | C=CC(=O)Nc1cccc(Nc2nc(Nc3ccccc3)ncc2C)c1 [Compound I-7, N-(3-(5-methyl-2-(phenylamino)pyrimidin-4-ylamino)phenyl)acrylamide] | irreversible |  | complete modification | not entirely complete | fully occupied
